In patent publication EP0103895A2, “Novel hydroxylamine derivatives, production and use thereof” (MEIJI SEIKA KABUSHIKI KAISHA, priority 1982, dated 1984):
Where “and” joins values, the source holds several entries; their conditions need not be identical. Equal values may be shown once. Read-outs that look alike come from different tables or passages of the source.

Key:
[1] = tested on: swine whipworm (Trichuris suis); test: Test of anthelmintic effect in naturally infected pigs, E.P.G. on 7th day: swine whipworm (Test Examples A9, B9, C9, D9); type: in vivo
Protocol: (§1) Six pigs infected with swine roundworm and swine whipworm (naturally infected pigs) were employed in groups each of two pigs.
(§2) As a control, only gelatin capsules were administered orally to the two pigs.
(§3) Before administration and on the 7th day after. administration, fecal matter testing was conducted to calculate the E.P.G., and the anthelmintic effect was judged by the changing of the E.P.G. to negative'.
(§4) 50 mg of each compound was placed in a gelatin capsule per 1 Kg of body weight and administered orally to each of the two pigs. As control, only gelatin capsules were administered orally to two pigs.
(§5) 30 mg of each compound was placed in a gelatin capsule per 1 Kg of body weight and administered orally to each of the two pigs. As control, only gelatin capsules were administered orally to two pigs.

[2] = tested on: fowl roundworm (Ascaridia galli); test: Anthelmintic test in chickens artificially infected with fowl roundworm, single oral dose in gelatin capsule, worm bodies counted within 48 hours (Test Examples A1, B1, C1, D1); type: in vivo; settings: Ascaridia galli, po, 48 h, chicken, chickens No.1-3, read-out: Anthelmintic effect after 48 hours; for inhibition in vivo at 30 mg/kg: 30 mg/Kg oral in gelatin capsule; for inhibition in vivo at 50 mg/kg: 50 mg/Kg oral in gelatin capsule
Outline: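 Anthelmintic percentage derived from counts of worms passed within 48 h plus worms left in the intestine after killing at 48 h. Infection confirmed by fecal examination in three-bird groups; compound given orally once in gelatin capsules at 10/20 (A1, B1), 30/50 (C1) or 15/30 (D1) mg/kg.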

[3] = tested on: swine roundworm (Ascaris suum); test: Test of anthelmintic effect in naturally infected pigs, E.P.G. on 7th day: swine roundworm (Test Examples A9, B9, C9, D9); type: in vivo; settings: for anthelmintic effect: pigs infected with swine roundworm and swine whipworm (statement covers both)
Protocol: as §1, §2, §3, §4, §5

[4] = tested on: fowl roundworm (As. galli); test: Anthelmintic test in chickens artificially infected with fowl roundworm, compound added to feed, E.P.G. and worm count up to 21st day (Test Examples A2, B2, C2, D2); type: in vivo, Ascaridia galli; settings: for inhibition in vivo at 25 ppm / inhibition in vivo at 50 ppm / inhibition in vivo at 10 ppm: Ascaridia galli, 504 h, read-out: Anthelmintic effect; for inhibition in vivo at 10 ppm: 10 ppm added to feed
[5] = tested on: swine Oesophagostomum (Oesophagostomum dentatum); test: Test of anthelmintic effect against swine Oesophagostomum in naturally infected pigs, E.P.G. on 7th day (Test Examples A8, B8, C8, D8); type: in vivo; settings: for anthelmintic effect: one administration of 20 mg/Kg
Protocol: Six pigs infected with swine Oesophagostomum (naturally infected pigs) were employed by grouping them into groups each of two pigs.
as §2
(§6) Before administration and on the 7th day after administration, fecal matter testing was conducted to calculate the E.P.G., and the anthelmintic effect was judged by the changing of the E.P.G. to negative.

[6] = tested on: Liver fluke; Fasciola hepatica (F. hepatica); test: Test of anthelmintic effect against rat infected experimentally with liver fluke (Test Examples A11, B11, C11, D11); type: in vivo; parameters: key to Presence or absence of fluke egg in fecal matter On 21st day after the last administration: +: indicates detection of fluke egg; -: indicates no detection
From the text: Twenty-eight (28) rats were employed in fourteen groups each of two rats, each rat being infected with 5 metacercariae of Liver fluke; Fasciola he^patica (F.. hepatica) and confirmed to have worm eggs on the 75th day after infection according to fecal matter testing.
Judgement of the effect was made by the presence or absence of the worm gees in the fecal matter on the 21st day after the last administration and by examination according to autopsis as to whether the worm bodies were dead or alive in the liver.
The same as that in Test Example All, but eight (8) rats were employed by grouping them into groups each of two rats, each rat being infected with 5 metacercariae of liver fluke and confirmed to have fluke eggs on the 75th day after infection according to fecal matter testing.
The compounds provided for the tests were Compound Nos. Bl, B8 and B19.
The same as that in Test Example All, but six (6) rats were employed by grouping them into groups each of two rats, each rat being infected with 5 metacercariae of Fasciola hepatica and confirmed to have worm eggs on the 75th day after infection according to fecal matter testing.
The compounds provided for the tests were Compound Nos. C2 and C6.
The same as that in Test Example All, but the compounds provided for tests were Compound Nos. D14, D15 and D16.

[7] = tested on: stomach worm (Haemonchus controtus); test: Anthelmintic test against cow stomach worm in naturally infected cows, E.P.G. on 7th day (Test Examples A6, B6, C6, D6); type: in vivo; settings: cows
Protocol: Three cows infected with stomach worm (naturally infected cows) were employed by grouping them into a group of two and a group of one.
(§7) As control, only gelatin capsules were administered orally to the one cow.
as §6, §7, §7

[8] = tested on: canine strongyloides (Strongyloides stercoralis); test: Anthelmintic test against canine strongyloides in naturally infected dogs, E.P.G. on 7th day (Test Examples A4, B4, C4, D4); type: in vivo; settings: dogs, 10 mg/Kg orally once, one value per dog
Protocol: Three dogs infected with canine strongyloides (naturally infected dogs) were employed by grouping them into a group of two and a group of one.
As control, only a gelatin capsule was administered orally to the one dog.
as §6
(§8) As control, only gelatin capsules were administered orally to the one dog.
as §8

[9] = tested on: canine filaria; Dirofilaria immitis; test: Test of anthelmintic effect against canine filaria in naturally infected dogs, subcutaneous injection, microfilaria in blood and adult filaria at autopsy (Test Examples A10, B10, C10, D10); type: in vivo; settings: dogs
[10] = tested on: Diphyllobothrium erinacei; test: Test of anthelmintic effect against Diphyllobothrium erinacei (tapeworm) in experimentally infected cats (Test Examples A5, B5, C5, D5)
[11] = pig, 30 mg/Kg oral in gelatin capsule, one administration
[12] = pig, Ascaris suum, 30 mg/Kg oral in gelatin capsule, one administration
[13] = feed or water, chicken, 25 ppm in feed
[14] = feed or water, chicken, 50 ppm in feed
[15] = pigs, 20 mg/Kg orally once, one value per pig
[16] = po, chickens, worm count on 21st day, one value per chicken
[17] = po, chickens, 50 ppm added to feed, worm count on 21st day, one value per chicken
[18] = rats, 50 mg/Kg x 5 orally, autopsy, liver, "Denatured" = fluke body is alive but a part of fluke body has changed, one value per rat
[19] = rats, 50 mg/Kg x 5 orally, one value per rat
[20] = 20 mg/Kg x 3 subcutaneously, autopsy on 10th day after the last administration, one value per dog, 20 mg/kg

## C=CCON(CC=C)C(=O)c1ccccc1 [Compound C6]
[1]; [11]
  Change of E.P.G. 7th day: 0
[1]; pig, before 30 mg/Kg oral (baseline)
  Change of E.P.G. Before administration: 4,300 and 5,800
[2]
  inhibition in vivo at 30 mg/kg: 100%
  inhibition in vivo at 50 mg/kg: 100%
[3]; [12]
  Change of E.P.G. 7th day: 0
[3]; one administration of 30 mg/Kg
  anthelmintic effect: marked anthelmintic effect
[4]; [13]
  inhibition in vivo at 25 ppm: 100%
[4]; [14]
  inhibition in vivo at 50 ppm: 100%
[4]; chicken, 25 ppm in feed
  Change of E.P.G. 21st day: 0
[4]; chicken, 50 ppm in feed
  Change of E.P.G. 21st day: 0
[5]; pig, Oesophagostomum dentatum, 20 mg/Kg, one administration
  Change of E.P.G. 7th day: 0
[5]; pigs
  anthelmintic effect: marked anthelmintic effect
[6]; rat, 50 mg/Kg x 5
  Condition of fluke body: dead
  Presence or absence of fluke egg in fecal matter On 21st day after the last administration: -
[6]; rats, five administrations in a dose of 50 mg/Kg each
  anthelmintic effect: marked antihelmintic effect

## C#CCN(OCCCC)C(=O)c1ccccc1 [Compound A10, N-propargyl-N-benzoyl-O-butylhydroxylamine]
[1]; [15]
  Change of E.P.G. 7th day: 0 E.P.G.
[3]; one administration of 20 mg/Kg
  anthelmintic effect: marked anthelmintic effect
[3]; pigs, 20 mg/Kg orally once, Ascaris suum, one value per pig
  Change of E.P.G. 7th day: 0 E.P.G.
[4]; [16]
  inhibition in vivo at 10 ppm: 80 to 90%
[4]; [17]
  inhibition in vivo at 50 ppm: 100%
[6]; [18]
  Condition of fluke body: dead
[6]; [19]
  Presence or absence of fluke egg in fecal matter On 21st day after the last administration: -

## C#CCN(OCC=C)C(C)=O [Compound A3, N-propargyl-N-acetyl-O-allylhydroxylamine]
[4]; [16]
  inhibition in vivo at 10 ppm: 100%
[4]; [17]
  inhibition in vivo at 50 ppm: 100%
[5]; pigs, 20 mg/Kg orally once, baseline, one value per pig, 20 mg/kg
  Change of E.P.G. Before administration: 1,600 E.P.G. and 1,000 E.P.G.
[5]; [15]
  Change of E.P.G. 7th day: 0 E.P.G.
[5]; pigs
  anthelmintic effect: marked anthelmintic effect
[7]; 15 mg/Kg orally once, baseline, one value per cow, 15 mg/kg
  Change of E.P.G. Before administration: 1,700 E.P.G. and 1,500 E.P.G.
[7]; 15 mg/Kg orally once, one value per cow
  Change of E.P.G. 7th day: 0 E.P.G.
[7]; one administration of 15 mg/Kg
  anthelmintic effect: marked anthelmintic effect
[8]; baseline, 10 mg/kg
  Change of E.P.G. Before administration: 1,900 E.P.G. and 2,700 E.P.G.
[8]
  Change of E.P.G. 7th day: 0 E.P.G.
[9]; Dirofilaria immitis, sc, 240 h, administration of 20 mg/Kg repeated three times, given as about 50% or more, read-out: anthelmintic effect against adult filaria
  inhibition in vivo at 20 mg/kg: ≥ 50%
[9]; [20]
  Effect on adult filaria: Number of worms killed/Total parasites: 13/18 and 4/ 8
  Effect on adult filaria: Percent of worms killed: 72% and 50%
[9]; 20 mg/Kg x 3 subcutaneously, earlobe blood, one value per dog
  Number of microfilaria/20 µl On 10th day after the last administration: 0 /20 µl
[9]; administration of 20 mg/Kg repeated three times
  anthelmintic effect against microfilaria (mf): marked anthelmintic effect
[10]; cats infected with 5 plerocercoids, 50 mg/Kg x 5 times orally, autopsy ten days after administration, one value per cat
  Number of worm bodies remaining in enteron: 0
[10]; cats, 50 mg/Kg x 5 times orally, one value per cat (Table A7)
  Worm egg detection on 10th day after administration: -
[10]; cats, 5 continuous administrations of 50 mg/Kg
  anthelmintic effect: marked anthelmintic effects
[6]; [18]
  Condition of fluke body: dead
[6]; [19]
  Presence or absence of fluke egg in fecal matter On 21st day after the last administration: -

## C=CCON(CC=C)C(=O)CCC [Compound C3]
[1]; [11]
  Change of E.P.G. 7th day: 0
[2]
  inhibition in vivo at 30 mg/kg: 80 to 90%
  inhibition in vivo at 50 mg/kg: 100%
[3]; [12]
  Change of E.P.G. 7th day: 0
[3]; pig, Ascaris suum, before 30 mg/Kg oral (baseline)
  Change of E.P.G. Before administration: 1,300 and 2,100
[3]; one administration of 30 mg/Kg
  anthelmintic effect: marked anthelmintic effect
[4]; [13]
  inhibition in vivo at 25 ppm: 80 to 90%
[4]; [14]
  inhibition in vivo at 50 ppm: 100%
